The values below come from US20010007862A1, “METHOD OF SELECTING A SALT FOR MAKING AN INCLUSION COMPLEX” (priority 1996, published 2001).

Where a name gives a salt, the structure may show the parent alone.

This data set in a line: Equilibrium solubility of ziprasidone salts in 40% (w/v) aqueous SBECD. To be noted: 40% SBECD. From the text: Many different experimental protocols can be envisioned and implemented.

`O=C1Cc2cc(CCN3CCN(c4nsc5ccccc45)CC3)c(Cl)cc2N1` [mesylate, Ziprasidone Mesylate]: the “Rank of solubility among salt candidates and cyclodextrin solutions tested” value is reported as “highest solubility”.
